Laboratory results as given in patent publication US12569464B2, “Protein-protein interaction inducing technology” (Arvinas Operations, Inc., priority 2016, dated 2026).

Legend:
AR = target: T1, AR (Homo sapiens, UniProt P10275+P40337, T878A); assay: AR degradation in LNCaP cells (androgen receptor ELISA); assay type: cell-based; conditions: for DC50 / Dmax / maximum AR degradation Dmax: LNCaP cells; for DC50: read-out: AR degradation potency DC50; for Dmax: read-out: maximum AR degradation Dmax
T1 construct: degradation Dmax of AR in LNCaP cells; endogenous in cells; host or cells: LNCaP
T1 sequence (Q15370 whole entry): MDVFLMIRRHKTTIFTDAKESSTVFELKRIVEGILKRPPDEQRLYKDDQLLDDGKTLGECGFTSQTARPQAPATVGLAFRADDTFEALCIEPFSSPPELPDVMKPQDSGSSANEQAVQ
T1 sequence (P40337 whole entry): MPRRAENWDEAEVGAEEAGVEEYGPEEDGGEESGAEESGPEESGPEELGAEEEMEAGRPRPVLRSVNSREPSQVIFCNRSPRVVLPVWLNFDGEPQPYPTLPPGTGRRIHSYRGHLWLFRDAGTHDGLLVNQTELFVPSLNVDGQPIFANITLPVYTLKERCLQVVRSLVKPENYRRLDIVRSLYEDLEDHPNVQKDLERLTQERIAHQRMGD
T1 sequence (P10275 whole entry T878A): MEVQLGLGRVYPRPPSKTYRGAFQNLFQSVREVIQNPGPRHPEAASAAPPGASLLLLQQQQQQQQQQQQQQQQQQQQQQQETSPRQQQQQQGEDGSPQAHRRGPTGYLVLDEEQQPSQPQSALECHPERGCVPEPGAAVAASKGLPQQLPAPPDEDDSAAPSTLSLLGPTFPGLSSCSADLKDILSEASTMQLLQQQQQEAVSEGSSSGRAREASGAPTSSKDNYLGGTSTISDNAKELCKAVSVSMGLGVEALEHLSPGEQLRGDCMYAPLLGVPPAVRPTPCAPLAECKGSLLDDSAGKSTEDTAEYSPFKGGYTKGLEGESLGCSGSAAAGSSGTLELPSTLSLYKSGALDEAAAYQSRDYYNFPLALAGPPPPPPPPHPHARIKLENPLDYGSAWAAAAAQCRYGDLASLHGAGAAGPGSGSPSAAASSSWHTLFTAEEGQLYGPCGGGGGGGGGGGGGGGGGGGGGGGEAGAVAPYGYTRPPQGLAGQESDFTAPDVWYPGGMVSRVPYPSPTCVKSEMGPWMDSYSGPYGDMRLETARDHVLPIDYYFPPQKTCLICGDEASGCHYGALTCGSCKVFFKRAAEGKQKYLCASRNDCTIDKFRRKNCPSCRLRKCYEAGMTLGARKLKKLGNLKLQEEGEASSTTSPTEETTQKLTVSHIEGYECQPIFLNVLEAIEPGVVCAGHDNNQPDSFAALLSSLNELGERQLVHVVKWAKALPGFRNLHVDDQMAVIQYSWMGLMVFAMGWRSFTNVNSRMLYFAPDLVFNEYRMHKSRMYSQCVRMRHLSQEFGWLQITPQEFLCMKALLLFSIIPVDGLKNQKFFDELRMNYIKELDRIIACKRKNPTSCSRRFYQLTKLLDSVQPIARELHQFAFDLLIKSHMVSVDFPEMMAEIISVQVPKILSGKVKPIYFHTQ
T1 sequence (Q15369 whole entry, further chain): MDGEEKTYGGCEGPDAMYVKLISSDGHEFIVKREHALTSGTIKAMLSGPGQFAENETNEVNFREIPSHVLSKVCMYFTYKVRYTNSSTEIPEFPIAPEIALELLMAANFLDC
Protocol: (§1) The connector linking the AR-binding warhead and the VHL-binding warhead was systematically probed from 4 to 23 atoms. The AR degradation potency DC50 and the maximum percentage of degradation Dmax of AR in LNCaP cells were measured for each of these compounds. […] The binary binding potency with respect to AR was also measured for some of the compounds by the cell-based ligand (R1881) displacement assay. The ratio α between the AR-binding potency and the degradation potency are calculated when it is possible.
Androgen Receptor ELISA Assay
The protocols used with VCaP cells are described below. The androgen receptor ELISA assay was performed using PathScan AR ELISA (Cell Signaling Catalog #12850) according to the following assay steps: […]

Androgen Receptor = target: T2, Androgen Receptor (Homo sapiens, UniProt P10275); assay: Cell-based ligand (R1881) displacement assay, binary binding to AR; conditions: read-out: binary binding potency IC50^AR in cells
T2 construct: expressed in transfected cells; host or cells: HEK293
T2 sequence (P10275 1-920): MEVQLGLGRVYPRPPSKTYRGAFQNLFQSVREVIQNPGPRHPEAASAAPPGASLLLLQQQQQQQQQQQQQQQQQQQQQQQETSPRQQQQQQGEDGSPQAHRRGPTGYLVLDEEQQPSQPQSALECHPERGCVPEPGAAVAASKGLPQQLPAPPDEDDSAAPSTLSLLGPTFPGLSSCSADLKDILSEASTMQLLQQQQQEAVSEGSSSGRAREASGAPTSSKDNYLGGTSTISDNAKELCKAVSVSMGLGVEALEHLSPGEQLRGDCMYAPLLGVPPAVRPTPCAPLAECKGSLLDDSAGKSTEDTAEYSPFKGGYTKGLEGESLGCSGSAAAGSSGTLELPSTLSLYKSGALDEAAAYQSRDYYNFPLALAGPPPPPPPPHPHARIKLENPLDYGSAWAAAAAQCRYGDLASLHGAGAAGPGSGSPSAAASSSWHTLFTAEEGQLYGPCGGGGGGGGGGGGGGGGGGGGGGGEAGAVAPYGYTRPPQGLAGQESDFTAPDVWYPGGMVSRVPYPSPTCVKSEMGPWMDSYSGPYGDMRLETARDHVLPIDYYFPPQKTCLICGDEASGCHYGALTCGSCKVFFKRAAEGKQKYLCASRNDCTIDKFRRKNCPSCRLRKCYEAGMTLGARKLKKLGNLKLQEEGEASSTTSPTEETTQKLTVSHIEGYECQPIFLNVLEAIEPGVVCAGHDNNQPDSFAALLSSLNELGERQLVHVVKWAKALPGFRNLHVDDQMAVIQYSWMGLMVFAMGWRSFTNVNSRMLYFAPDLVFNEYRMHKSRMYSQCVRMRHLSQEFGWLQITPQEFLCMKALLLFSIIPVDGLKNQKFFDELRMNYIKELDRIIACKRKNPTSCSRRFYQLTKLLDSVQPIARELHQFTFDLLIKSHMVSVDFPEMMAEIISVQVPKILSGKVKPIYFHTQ
Protocol: It is composed of an AR-binding warhead which is connected to a VHL-binding warhead by a linear connector. […] MD simulation of a ternary system composed of AR ligand-binding domain, a ligand and the complex of VHL with elongin B (EB) and elongin C (EC) in the presence of explicit water was performed. The ligand in the simulation is a close analog of the ligand L above and only differs from the ligand L above by having a methyl substitution at the 4-position of the thiazole group.
as §1
The experimental protocol is based on reference Gustafson et al. (Angew. Chem. Int. Ed., 54: 9659-9662). HEK293 cells were transiently transfected using Fugene 6 to overexpress wildtype Androgen Receptor. During binding assay, transfected cells were grown in DMEM supplemented with 10% charcoal-stripped FBS. Cells were treated for two hours with the indicated competitor compound in the presence of 0.1 nM ^3H-R1881. Cells were washed in PBS, lysed in 200 ul lysis buffer (2% SDS, 10% Glycerol, 10 mM Tris-HCl [pH 6.8]), and cleared with the addition of 300 ul of 10 mM Tris-HCl (pH 8.0). 300 ul of these lysates were added to 3 mL of Cytoscint (MP Biomedicals), and scintillation counting was performed on a Beckman LS 6000SC instrument. Counts (cpm) were normalized to total protein amount in each sample, as determined via the Pierce BCA Protein Assay Kit (Thermo Scientific) per the manufacturer's instructions.

Cc1ncsc1-c1ccc(CNC(=O)[C@@H]2C[C@@H](O)CN2C(=O)[C@@H](NC(=O)COCCOCCOCCCOCCOCCOc2ccc(N3C(=S)N(c4ccc(C#N)c(C(F)(F)F)c4)C(=O)C3(C)C)cc2)C(C)(C)C)cc1 [Compound 14]
DC50 (AR): 0.22 µM
Dmax (AR): 52%
IC50 (Androgen Receptor): 4.95 µM

Cc1ncsc1-c1ccc(CNC(=O)[C@@H]2C[C@@H](O)CN2C(=O)[C@@H](NC(=O)COCCOCCOCCCCOCCOCCOc2ccc(N3C(=S)N(c4ccc(C#N)c(C(F)(F)F)c4)C(=O)C3(C)C)cc2)C(C)(C)C)cc1 [Compound 15]
DC50 (AR): 0.029 µM
Dmax (AR): 58%
IC50 (Androgen Receptor): 3.48 µM

Cc1ncsc1-c1ccc(CNC(=O)[C@@H]2C[C@@H](O)CN2C(=O)[C@@H](NC(=O)COCCOCCCCOCCCCOCCOCCOc2ccc(N3C(=S)N(c4ccc(C#N)c(C(F)(F)F)c4)C(=O)C3(C)C)cc2)C(C)(C)C)cc1 [Compound 17]
DC50 (AR): > 3 µM
Dmax (AR): 43%
IC50 (Androgen Receptor): 1.42 µM

Cc1ncsc1-c1ccc(CNC(=O)[C@@H]2C[C@@H](O)CN2C(=O)[C@@H](NC(=O)COCCOCCCCCOCCCCCOCCOCCOc2ccc(N3C(=S)N(c4ccc(C#N)c(C(F)(F)F)c4)C(=O)C3(C)C)cc2)C(C)(C)C)cc1 [Compound 18]
ratio α between AR-binding potency IC50 and degradation potency DC50 (AR): <1
maximum AR degradation Dmax (AR): 47%
DC50 (AR): > 3 µM
IC50 (Androgen Receptor): 0.96 µM

Cc1ncsc1-c1ccc(CNC(=O)[C@@H]2C[C@@H](O)CN2C(=O)[C@@H](NC(=O)COCCOCCOCCCCCOc2ccc(N3C(=S)N(c4ccc(C#N)c(C(F)(F)F)c4)C(=O)C3(C)C)cc2)C(C)(C)C)cc1 [Compound 11]
ratio α between AR-binding potency IC50 and degradation potency DC50 (AR): 105
maximum AR degradation Dmax (AR): 60%
DC50 (AR): 0.011 µM
IC50 (Androgen Receptor): 1.15 µM

Cc1ncsc1-c1ccc(CNC(=O)[C@@H]2C[C@@H](O)CN2C(=O)[C@@H](NC(=O)COCCOc2ccc(N3C(=S)N(c4ccc(C#N)c(C(F)(F)F)c4)C(=O)C3(C)C)cc2)C(C)(C)C)cc1 [Compound 2]
ratio α between AR-binding potency IC50 and degradation potency DC50 (AR): <1
maximum AR degradation Dmax (AR): 51%
DC50 (AR): 1.7 µM
IC50 (Androgen Receptor): 2.14 µM

Cc1ncsc1-c1ccc(CNC(=O)[C@@H]2C[C@@H](O)CN2C(=O)[C@@H](NC(=O)CCCOc2ccc(N3C(=S)N(c4ccc(C#N)c(C(F)(F)F)c4)C(=O)C3(C)C)cc2)C(C)(C)C)cc1 [Compound 1]
DC50 (AR): > 3 µM
Dmax (AR): 35%
IC50 (Androgen Receptor): 0.97 µM

Cc1ncsc1-c1ccc(CNC(=O)[C@@H]2C[C@@H](O)CN2C(=O)[C@@H](NC(=O)COCCCOCCCOc2ccc(N3C(=S)N(c4ccc(C#N)c(C(F)(F)F)c4)C(=O)C3(C)C)cc2)C(C)(C)C)cc1 [Compound 7]
maximum AR degradation Dmax (AR): 56%
DC50 (AR): 0.39 µM

Cc1ncsc1-c1ccc(CNC(=O)[C@@H]2C[C@@H](O)CN2C(=O)[C@@H](NC(=O)COCCOCCOCCOCCOCCOCCOc2ccc(N3C(=S)N(c4ccc(C#N)c(C(F)(F)F)c4)C(=O)C3(C)C)cc2)C(C)(C)C)cc1 [Compound 16]
DC50 (AR): 3 µM
Dmax (AR): 90%
IC50 (Androgen Receptor): 1.75 µM

Cc1ncsc1-c1ccc(CNC(=O)[C@@H]2C[C@@H](O)CN2C(=O)[C@@H](NC(=O)COCCCOCCCCCOc2ccc(N3C(=S)N(c4ccc(C#N)c(C(F)(F)F)c4)C(=O)C3(C)C)cc2)C(C)(C)C)cc1 [Compound 9]
ratio α between AR-binding potency IC50 and degradation potency DC50 (AR): 23.5
maximum AR degradation Dmax (AR): 83%
DC50 (AR): 0.0344 µM
IC50 (Androgen Receptor): 0.81 µM
